Measured values reported in patent US9834542B2, “LXR modulators” (BRISTOL-MYERS SQUIBB COMPANY, priority 2013, dated 2017).

Molecular target: T1, LXRβ (Homo sapiens, UniProt P55055)
T1 construct: Co-transfection expression plasmids, comprising full-length LXRα (pCMX-h LXRα[…] or LXRβ (pCMX-hLXRβ)); expressed in transfected cells; host or cells: CV-1 African Green Monkey Kidney Cells
T1 sequence (P55055 1-460): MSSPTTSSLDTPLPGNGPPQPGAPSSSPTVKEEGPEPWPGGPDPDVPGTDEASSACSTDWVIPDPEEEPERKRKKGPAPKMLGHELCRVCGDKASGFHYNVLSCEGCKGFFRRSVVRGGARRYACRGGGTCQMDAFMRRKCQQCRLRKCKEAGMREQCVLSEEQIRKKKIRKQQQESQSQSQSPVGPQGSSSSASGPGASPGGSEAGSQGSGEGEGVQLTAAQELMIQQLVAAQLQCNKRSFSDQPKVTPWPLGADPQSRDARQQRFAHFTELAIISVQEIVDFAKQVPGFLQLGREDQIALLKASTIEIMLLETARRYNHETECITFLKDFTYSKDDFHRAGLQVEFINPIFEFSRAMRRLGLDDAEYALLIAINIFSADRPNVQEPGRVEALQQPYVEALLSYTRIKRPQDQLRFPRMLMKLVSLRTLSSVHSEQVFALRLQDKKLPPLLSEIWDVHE
T1 sequence (P19793 1-462 partner): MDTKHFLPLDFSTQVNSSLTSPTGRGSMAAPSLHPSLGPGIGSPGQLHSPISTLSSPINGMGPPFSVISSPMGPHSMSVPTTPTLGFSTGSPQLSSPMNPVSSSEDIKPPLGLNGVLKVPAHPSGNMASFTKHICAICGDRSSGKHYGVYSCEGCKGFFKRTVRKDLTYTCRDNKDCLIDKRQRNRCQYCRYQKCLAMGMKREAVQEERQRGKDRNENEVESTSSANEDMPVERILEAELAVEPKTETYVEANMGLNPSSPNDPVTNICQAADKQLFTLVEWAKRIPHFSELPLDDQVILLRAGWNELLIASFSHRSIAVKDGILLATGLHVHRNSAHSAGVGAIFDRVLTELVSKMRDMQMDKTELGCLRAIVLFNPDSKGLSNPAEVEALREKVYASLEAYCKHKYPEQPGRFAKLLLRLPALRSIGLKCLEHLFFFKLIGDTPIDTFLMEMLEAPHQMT
Assay: Co-transfection assay (LXRE luciferase reporter), LXRβ
Format: cell-based
Conditions: for EC50: CV-1 cells transfected with pCMX-hLXRβ and LXREx1-Tk-Luciferase, 20 hours incubation; for Emax: LXRβ co-transfection, relative to high control 1-(2,4-difluorobenzyl)-2-oxo-6-(4-phenoxyphenyl)-4-(trifluoromethyl)-1,2-dihydropyridine-3-carbonitrile, read-out: % Efficacy
In short: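 Luciferase signal from an LXREx1-Tk reporter was measured after transfected CV-1 cells (full-length hLXRβ, endogenous RXR) were treated with compounds for 20 h at 37 °C, ≤0.5% DMSO. EC50 came from four-parameter fits of 11-point ½-log curves; % efficacy versus a reference agonist maximum.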

Cc1nc(C(=O)C(C)C)cn1-c1ccc(-c2cccc(S(C)(=O)=O)c2)cc1-n1nncc1-c1ccc(OC(F)(F)F)cc1 [Example 234, 2-methyl-1-(2-methyl-1-(3′-(methylsulfonyl)-3-(5-(4-(trifluoromethoxy)phenyl)-1H-1,2,3-triazol-1-yl)-[1,1′-biphenyl]-4-yl)-1H-imidazol-4-yl)propan-1-one]
EC50: 1200 nM
Emax: 75%

Cc1nc(C(F)(F)F)cn1-c1ccc(-c2cccc(S(C)(=O)=O)c2)cc1-c1ncoc1-c1ccc(Cl)cc1 [Example 354, 5-(4-chlorophenyl)-4-{3′-(methylsulfonyl)-4-[2-methyl-4-(trifluoromethyl)-1H-imidazol-1-yl]biphenyl-3-yl}-1,3-oxazole]
EC50: 425 nM
Emax: 77%

Cc1nc(-c2cc(-c3cccc([S+](C)[O-])c3)ccc2-n2cc(C(F)(F)F)nc2C)c(-c2ccc(OC(F)(F)F)cc2)o1 (stereo not shown) [Example 533, 2-methyl-4-(4-(2-methyl-4-(trifluoromethyl)-1H-imidazol-1-yl)-3′-(methylsulfinyl)-[1,1′-biphenyl]-3-yl)-5-(4-(trifluoromethoxy)phenyl)oxazole]
EC50: 233 nM
Emax: 73%

Cc1ccc(-c2oc(C)nc2-c2cc(-c3cccc(S(C)(=O)=O)c3)ccc2-n2cc(C(F)(F)F)nc2C)cc1 [Example 491, 2-methyl-4-(4-(2-methyl-4-(trifluoromethyl)-1H-imidazol-1-yl)-3′-(methylsulfonyl)-[1,1′-biphenyl]-3-yl)-5-(p-tolyl)oxazole]
EC50: 63 nM
Emax: 71%

Cc1cc(-c2cc(-c3cccc(S(C)(=O)=O)c3)ccc2-n2cc(C(F)(F)F)nc2C)n(-c2ccc(OC(F)(F)F)cc2)n1 [Example 291, 3-methyl-5-{3′-(methylsulfonyl)-4-[2-methyl-4-(trifluoromethyl)-1H-imidazol-1-yl]biphenyl-3-yl}-1-{4-[(trifluoromethyl)oxy]phenyl}-1H-pyrazole]
EC50: 47 nM
Emax: 69%

Cc1nc(C(F)(F)F)cn1-c1c(F)cc(-c2cccc(S(C)(=O)=O)c2)cc1-n1nncc1-c1ccc(Cl)cc1Cl [Example 8, 5-(2,4-dichlorophenyl)-1-{5-fluoro-3′-(methylsulfonyl)-4-[2-methyl-4-(trifluoromethyl)-1H-imidazol-1-yl]biphenyl-3-yl}-1H-1,2,3-triazole]
EC50: 143 nM
Emax: 91%

Cc1nc(C(F)(F)F)cn1-c1ccc(-c2cc(F)c(CO)c(S(C)(=O)=O)c2)cc1-n1nncc1-c1ccc(Cl)cc1 [Example 58, {3′-[5-(4-chlorophenyl)-1H-1,2,3-triazol-1-yl]-3-fluoro-5-(methylsulfonyl)-4′-[2-methyl-4-(trifluoromethyl)-1H-imidazol-1-yl]biphenyl-4-yl}methanol]
EC50: 217 nM
Emax: 78%

Cc1nc(-c2cc(-c3cccc(S(C)(=O)=O)c3)ccc2-n2cc(C(F)(F)F)nc2C)c(-c2cccnc2Cl)o1 [Example 552, 5-(2-chloropyridin-3-yl)-2-methyl-4-(4-(2-methyl-4-(trifluoromethyl)-1H-imidazol-1-yl)-3′-(methylsulfonyl)-[1,1′-biphenyl]-3-yl)oxazole]
EC50: 913 nM
Emax: 82%

Cc1nc(-c2cc(-c3cc(F)c(CO)c(S(C)(=O)=O)c3)ccc2-n2cc(C(F)(F)F)nc2C)c(-c2cccnc2C)o1 [Example 395, (3-fluoro-4′-(2-methyl-4-(trifluoromethyl)-1H-imidazol-1-yl)-3′-(2-methyl-5-(2-methylpyridin-3-yl)oxazol-4-yl)-5-(methylsulfonyl)biphenyl-4-yl)methanol]
EC50: 1230 nM
Emax: 61%

Cc1nc(C(F)(F)F)cn1-c1ccc(-c2ccc(CO)c(S(C)(=O)=O)c2)cc1-c1ccnn1-c1ccc2c(c1)OC(F)(F)O2 [Example 295, (3′-(1-(2,2-difluorobenzo[d][1,3]dioxol-5-yl)-1H-pyrazol-5-yl)-4′-(2-methyl-4-(trifluoromethyl)-1H-imidazol-1-yl)-3-(methylsulfonyl)biphenyl-4-yl)methanol]
EC50: 40 nM
Emax: 80%

Cc1nc(-c2cc(-c3cc(F)c(CO)c(S(C)(=O)=O)c3)ccc2-n2cc(C(F)(F)F)nc2C)c(-c2ccc3c(c2)OCCO3)o1 [Example 444, (3′-(5-(2,3-dihydrobenzo[b][1,4]dioxin-6-yl)-2-methyloxazol-4-yl)-3-fluoro-4′-(2-methyl-4-(trifluoromethyl)-1H-imidazol-1-yl)-5-(methylsulfonyl)biphenyl-4-yl)methanol]
EC50: 125 nM
Emax: 74%

Cc1nc(C(F)(F)F)cn1-c1ccc(-c2cc(F)c(CO)c(S(C)(=O)=O)c2)cc1-c1ccnn1-c1ccc2c(c1)OC(F)(F)O2 [Example 294, (3′-(1-(2,2-difluorobenzo[d][1,3]dioxol-5-yl)-1H-pyrazol-5-yl)-3-fluoro-4′-(2-methyl-4-(trifluoromethyl)-1H-imidazol-1-yl)-5-(methylsulfonyl)biphenyl-4-yl)methanol]
EC50: 57 nM
Emax: 87%

Cc1nc(-c2cc(-c3cccc(S(C)(=O)=O)c3)ccc2-n2cc(C(F)(F)F)nc2C)c(-c2ccc(F)cc2)o1 [Example 505, 5-(4-fluorophenyl)-2-methyl-4-(4-(2-methyl-4-(trifluoromethyl)-1H-imidazol-1-yl)-3′-(methylsulfonyl)biphenyl-3-yl)oxazole]
EC50: 144 nM
Emax: 87%

Cc1cc(-c2cc(-c3cc(O)c(CF)c(S(C)(=O)=O)c3)ccc2-n2cc(C(F)(F)F)nc2C)n(-c2ccc(OC(F)(F)F)cc2)n1 [Example 303, 4-(fluoromethyl)-3′-(3-methyl-1-(4-(trifluoromethoxy)phenyl)-1H-pyrazol-5-yl)-4′-(2-methyl-4-(trifluoromethyl)-1H-imidazol-1-yl)-5-(methylsulfonyl)-[1,1′-biphenyl]-3-ol]
EC50: 21 nM
Emax: 68%

Cc1nc(-c2cc(-c3cccc(S(C)(=O)=O)c3)ccc2-n2cc(C(F)(F)F)nc2C)c(-c2ccc(Cl)cn2)o1 [Example 431, 5-(5-chloropyridin-2-yl)-2-methyl-4-(4-(2-methyl-4-(trifluoromethyl)-1H-imidazol-1-yl)-3′-(methylsulfonyl)biphenyl-3-yl)oxazole]
EC50: 358 nM
Emax: 85%

Cc1nc(C(F)(F)F)cn1-c1ccc(-c2cccc(S(C)(=O)=O)c2)cc1-c1nc(CCO)oc1-c1ccc2c(c1)OC(F)(F)O2 [Example 531]
EC50: 422 nM
Emax: 74%

Cc1nc(C(F)(F)F)cn1-c1ccc(-c2cccc(C(C)(C)C(=O)O)c2)cc1-n1nncc1-c1ccc(OC(F)(F)F)cc1 [Example 95, 2-methyl-2-{4′-[2-methyl-4-(trifluoromethyl)-1H-imidazol-1-yl]-3′-(5-{4-[(trifluoromethyl)oxy]phenyl}-1H-1,2,3-triazol-1-yl)biphenyl-3-yl}propanoic acid]
EC50: 2850 nM
Emax: 139%

Cc1nc(C(F)F)cn1-c1ccc(-c2cccc(S(C)(=O)=O)c2)cc1-c1cnnn1Cc1ccc(Cl)cc1 [Example 245, 1-(4-chlorobenzyl)-5-(4-(4-(difluoromethyl)-2-methyl-1H-imidazol-1-yl)-3′-(methylsulfonyl)-[1,1′-biphenyl]-3-yl)-1H-1,2,3-triazole]
EC50: 216 nM
Emax: 102%

Cc1nc(C(F)(F)F)cn1-c1ccc(-c2cccc(S(C)(=O)=O)c2)cc1-n1nncc1C(F)(F)c1ccc(Cl)cc1 [Example 12, 5-[(4-chlorophenyl) (difluoro)methyl]-1-{3′-(methylsulfonyl)-4-[2-methyl-4-(trifluoromethyl)-1H-imidazol-1-yl]biphenyl-3-yl}-1H-1,2,3-triazole]
EC50: 133 nM
Emax: 62%

Cc1cc(-c2cc(-c3cc(F)c(CO)c(S(C)(=O)=O)c3)ccc2-n2cc(C(F)(F)F)nc2C)n(-c2ccc(Cl)cc2)n1 [Example 290, {3′-[1-(4-chlorophenyl)-3-methyl-1H-pyrazol-5-yl]-3-fluoro-5-(methylsulfonyl)-4′-[2-methyl-4-(trifluoromethyl)-1H-imidazol-1-yl]biphenyl-4-yl}methanol]
EC50: 30 nM
Emax: 43%
